Test results published in US20190031613A1, “COMPOUNDS AND METHODS FOR THEIR USE IN THE TREATMENT OF MALARIA” (University of South Florida, priority 2016, published 2019).
Values after ≈ are worked out from the molar mass of the structure shown. “Also recorded” adds a separate entry of the source. Read-outs that look alike come from different tables or passages of the source.

Assays:
[1] = tested on: P. berghei-GFP parasites; experiment: in vivo efficacy, modified Thompson test; design: species or system mice
Procedure: Prodrug 6d was orally tested for in vivo efficacy at four doses (0.3 mg/kg, 1.0 mg/kg, 3.0 mg/kg, and 10 mg/kg) in 0.5% aqueous HEC solution.

[2] = aqueous solubility at pH 7.4; details: pH 7.4, aqueous buffer
[3] = tested on: multidrug resistant malarial strain W2 (pyrimethamine and chloroquine resistant); experiment: in vitro antimalarial activity against strain W2; type: cell-based; details: strains W2 and TM90-C2B, strain not specified
Text: (§1) FIG. 2a depicts the synthesis of 4(1H)-quinolones 1 via Conrad-Limpach reaction^24 and conversion to first set of prodrugs (2, 3 and 4) via O-acylation.
(§2) FIG. 4a depicts the synthesis of 4(1H)-quinolones 1 into amino AOCOM ether prodrugs 6 via O-alkylation and subsequent deprotection.

[4] = in vivo pharmacokinetics in mice (plasma, LC/MS-MS)
Procedure: Plasma exposure of prodrug 6e and parent compound 1b was determined following a single oral administration at 10 mg/kg and 3 mg/kg doses in 0.5% aqueous HEC (FIG. 5b).
Compounds 1b and its prodrug 6e were administered as a single dose (10 mg/kg) in 0.5% HEC using freshly prepared solution. Parent compound 1d and its prodrugs 6c and 6d were administered as a single dose of 50 mg/kg using the same vehicle. The blood was collected in prepared 5 ml syringe containing heparin via cardiac puncture and put into 15 mL conical tube on ice. Five mice were used per one time point at 0.5 h, 1 h, 2 h, 4 h, 8 h and 24 h […] plus 2 mice as a control (not-treated). The blood was then centrifuged for 5 min at 4000 rpm and plasma supernatant collected while avoiding the whole blood pellet at the bottom of the tube. The plasma was stored at −80° C. until the day of LC/MS-MS analysis.
Compound concentrations were quantitated in plasma samples by LC/MS-MS using an Agilent triple quadrupole instrument. Chromatographic separation was conducted using an Agilent HPLC with Phenomenex Kinetex C18 column (2.6 μm particle size, 50-4.6 mm i.d.) equipped with a Phenomenex Security Guard column. The mobile phase (1.25 mL/min) consisted of 0.05% formic acid in water and 0.05% formic acid in acetonitrile mixed using a linear gradient over 7 minutes. […] Plasma samples and calibration standards were prepared by protein precipitation with acetonitrile (3 parts acetonitrile to 1 part plasma), followed by centrifugation and analysis of the supernatant. Sample concentrations were determined by comparison to calibration standards prepared in blank plasma and assayed using the same conditions. The analytical lower limit of quantitation in plasma was typically 0.75-1.00 nM and accuracy, precision and recovery were within acceptable limits.
The plasma was first warmed up on ice for about 1 hour. Then 50 μL of plasma sample was precipitated with 150 μL of cold acetonitrile with internal standard (133 nM) P4Q-95^20) following by centrifugation at 4,000 rpm for 5 min at 4° C. and transfer˜150 μL of the supernatant to LCMS vial. The samples were analyzed using Agilent triple quadruple instrument in triplicates (5 mice×3 injections for each time point). The chemical structure of P4Q-95^20 is shown below:
The calibration curve for 1d was linear in 1 to 500 nM range so samples were diluted if needed to fit this linearity and then concentration recalculated accordingly. Calibration curve was run each time following the actual PK measurements and used for that particular compound.

[5] = aqueous stability and parent compound release by quantitative HPLC; details: for parent compound released: parent 1d
Procedure: The stability of prodrugs in aqueous media and the release of parent compound was followed for 10 h using HPLC in triplicates.
Compound stability was assessed using quantitative HPLC in buffers at different pHs (2, 4, 7), in a simulated gastric fluid (SGF) and in a simulated intestinal fluid (SIF).

[6] = tested on: multidrug resistant malarial strain TM90-C2B (mefloquine, chloroquine, atovaquone, pyrimethamine resistant); experiment: in vitro antimalarial activity against strain TM90-C2B; type: cell-based; details: internal controls of the in vitro assay
Text: as §1, §2

[7] = tested on: P. berghei; details: cited from earlier work; for PO dose, single exposure radical cure: lowest single-cure dose as reported
[8] = 10 mg/kg PO, three daily doses days 3-5 PI, 0.5% aqueous HEC
[9] = 10 mg/kg PO, three daily doses days 3-5 PI, 0.5% aqueous HEC, untreated 13
[10] = 50 mg/kg PO, three daily doses days 3-5 PI, 0.5% aqueous HEC
[11] = aqueous medium at pH 7.4 (buffer not named)
[12] = oral dose 50.0 mg/kg, 0.5% aqueous HEC
[13] = single PO dose 0.01 mg/kg on day 3 PI
[14] = single PO dose 0.03 mg/kg on day 3 PI
[15] = single PO dose 0.1 mg/kg on day 3 PI
[16] = single PO dose 0.3 mg/kg on day 3 PI
[17] = single PO dose 3 mg/kg on day 3 PI
[18] = single PO dose 10 mg/kg on day 3 PI, 0.5% aqueous HEC

For `COc1cc2[nH]c(C)c(-c3ccccc3C)c(=O)c2cc1Cl` [1c, 6-chloro-7-methoxy-2-methyl-3-(o-tolyl)-4(1H)-quinolone, reference compound], the “Suppression [%] day 6 PI” value [1, 8] was 29%, the “Day of death (avg)” value [1, 9] was 13 and the “Day of death (avg)” value [1, 10] was 13. The “Suppression [%] day 6 PI” value [1, 10] was 28% and the solubility [2, 11] was 8.7 µM (≈ 2.73 µg/mL).
In the case of `CCN(CC)C(=O)Oc1c(-c2ccccc2C)c(C)nc2cc(OC)c(Cl)cc12` [2a], the “EC50 values fold higher than reference 4(1H)-quinolone 1c” value [3] is reported as 300 fold, the “in vitro antimalarial activity / EC50 values relative to 1c” value [3] is reported as “lacked in antimalarial activity” and the solubility [2] is reported as less than 1 µM.
With `COc1cc2nc(C)c(-c3ccccc3C)c(OC(=O)N3CCCC3)c2cc1Cl` [2b, 6-Chloro-7-methoxy-2-methyl-3-(o-tolyl)-4-((pyrrolidine-1-carbonyl)oxy)quinoline] the “EC50 values fold higher than reference 4(1H)-quinolone 1c” value [3] was 300 fold, the “in vitro antimalarial activity / EC50 values relative to 1c” value [3] was “lacked in antimalarial activity” and the solubility [2, 11] was 2.9 µM (≈ 1.19 µg/mL).
With `CNCCOC(=O)OCOc1c(-c2ccc(C(F)(F)F)cc2)c(C)nc2cc(OC)c(Cl)cc12.Cl` [6c, 6-Chloro-7-methoxy-2-methyl-3-(4-(triftuoromethyl)phenyl)-4-(((2-(methylammonio)ethoxycarbonyl)oxy)methoxy)quinoline, chloride salt] the “Suppression [%] day 6 PI” value [1, 8] was 75%, the “Day of death (avg)” value [1, 9] was 13 and the “Day of death (avg)” value [1, 10] was 16. For the same compound, the “Suppression [%] day 6 PI” value [1, 10] was 96%, the “AUC0→24” value [4, 12] was 8031 µmol·min/L and the “CL” value [4, 12] was 11.6 mL·kg/min. For the same compound, the “Vd” value [4, 12] was 7.8 L/kg, the “t1/2 apparent” value [4, 12] was 7.7 h and the “tmax” value [4, 12] was 4 h. The Cmax ([4]; read-out: Cmax [μmol/L], oral dose 50.0 mg/kg, 0.5% aqueous HEC, parent in plasma) was 12 µmol/L, the “AUC of 1d improved vs dosing of 1d” value ([4]; single oral 50 mg/kg) was 36 fold and the “maximum plasma concentration of 1d” value ([4]; single oral 50 mg/kg of prodrug, 0.5% aqueous HEC) was 12 µM. It also gave a parent compound released ([5]; in 1 h at pH 7.0) greater than 90% and a parent compound released ([5]; in 10 h at pH 4.0) greater than 25%.
For `CNCCCOC(=O)OCOc1c(-c2ccc(C(F)(F)F)cc2)c(C)nc2cc(OC)c(Cl)cc12.Cl` [6d, 6-Chloro-7-methoxy-2-methyl-3-(4-(trifluoromethyl)phenyl)-4-(((3-(methylammonio)propyloxycarbonyl)oxy)methoxy)quinoline, chloride salt], the “Suppression [%] day 6 PI” value [1, 8] was 82%, the “Day of death (avg)” value [1, 9] was 13 and the “Day of death (avg)” value [1, 10] was 14. The “Suppression [%] day 6 PI” value [1, 10] was 96%, the “life span of treated animals relative to untreated controls” value ([1]; 10 and 50 mg/kg PO) was “do not significantly extend the life span” and the “AUC0→24” value ([4]; mouse, in vivo, po, 50 mg/kg) was 11664 µmol·min/L. For the same compound, the “AUC of 1d improved vs dosing of 1d” value ([4]; mouse, in vivo, po, 50 mg/kg) was 52 fold, the “CL” value ([4]; mouse, in vivo, po, 50 mg/kg) was 7.8 mL·kg/min and the Cmax ([4]; mouse, in vivo, po, 50 mg/kg) was 21.2 µmol/L. The “Vd” value ([4]; mouse, in vivo, po, 50 mg/kg) was 4.3 L/kg, the “t1/2 apparent” value ([4]; mouse, in vivo, po, 50 mg/kg) was 6.4 h and the “tmax” value ([4]; mouse, in vivo, po, 50 mg/kg) was 1 h. For the same compound, the “aqueous stability” value ([5]; buffers pH 2, 4, 7, SGF, SIF) was “stable at low pH values; also recorded: more stable than 6c” and the parent compound released ([5]; in 5 h at pH 7.0) was greater than 55%.
In the case of `CNCCCOC(=O)OCOc1c(-c2ccc(Oc3ccc(OC(F)(F)F)cc3)cc2F)c(C)nc2cc(OC)c(Cl)cc12.Cl` [6e, 6-Chloro-7-methoxy-2-methyl-3-(2-fluoro-4-(4-(trifluoromethoxy)phenoxy)phenyl)-4-(((3-(methylammonio)propyloxycarbonyl)oxy)methoxy)quinoline, chloride salt], the “Day of death (avg)” value [1, 13] is reported as 13, the “Suppression [%] day 6 PI” value [1, 13] is reported as less than 1% and the “Day of death (avg)” value [1, 14] is reported as 13. The “Suppression [%] day 6 PI” value [1, 14] was less than 1%, the “Day of death (avg)” value [1, 15] was 13 and the “Suppression [%] day 6 PI” value [1, 15] was less than 1%. For the same compound, the “Day of death (avg)” value [1, 16] was 13, the “Suppression [%] day 6 PI” value [1, 16] was 57% and the “average suppression of parasitemia on day 13” value ([1]; single PO dose 1 mg/kg) was 90%. The “Suppression [%] day 6 PI” value ([1]; single PO dose 1 mg/kg on day 3 PI) was 97%, the “Day of death (avg)” value ([1]; single PO dose 1 mg/kg on day 3 PI, 1 mg/kg) was 21 and the “Day of death (avg)” value [1, 17] was “curative”. The “Suppression [%] day 6 PI” value [1, 17] was greater than 99%, the “Day of death (avg)” value [1, 18] was “curative” and the “Suppression [%] day 6 PI” value [1, 18] was greater than 99%. For the same compound, the “oral dose producing single dose cures” value ([1]; single oral dose, no advanced formulation) was 3 mg/kg, the “clearance” value ([4]; mouse, in vivo, po) was “low clearance” and the half-life ([4]; mouse, in vivo, po) was no less than 10 h. The “improvement in AUC vs parent” value ([4]; mouse, in vivo, po) was 21 fold, the “improvement of Cmax vs parent” value ([4]; mouse, in vivo, po) was 18 fold and the “AUC0→24” value ([4]; mouse, in vivo, po, 3 mg/kg) was 4818 µmol·min/L. The “Vd” value ([4]; mouse, in vivo, po, 3 mg/kg) was 0.8 L/kg, the “tmax” value ([4]; mouse, in vivo, po, 3 mg/kg) was 2 h and the “AUC0→24” value ([4]; mouse, in vivo, po, 10 mg/kg) was 10269 µmol·min/L. The “CL” value ([4]; mouse, in vivo, po, 10 mg/kg) was 1.4 mL·kg/min, the Cmax ([4]; mouse, in vivo, po, 10 mg/kg) was 9.1 µmol/L and the “Vd” value ([4]; mouse, in vivo, po, 10 mg/kg) was 1.6 L/kg. For the same compound, the “t1/2 apparent” value ([4]; mouse, in vivo, po, 10 mg/kg) was 13.1 h and the “tmax” value ([4]; mouse, in vivo, po, 10 mg/kg) was 4 h.
In the case of `O=C1C(O)=C([C@H]2CC[C@H](c3ccc(Cl)cc3)CC2)C(=O)c2ccccc21` [ATO, atovaquone, reference compound], the EC50 [6] is reported as 18.4 µM.
`C[C@H]1[C@@H](O)O[C@@H]2O[C@@]3(C)CC[C@H]4[C@H](C)CC[C@@H]1[C@@]24OO3` [DHA, dihydroartemisinin, reference compound] gave an EC50 [6] of 0.005 µM.
In the case of `C[C@H]1Cc2c([nH]c3cc(Cl)c(F)cc23)[C@@]2(N1)C(=O)Nc1ccc(Cl)cc12` [KAE609], the “PO dose, single exposure radical cure” value [7] is listed as 100 mg/kg.
In the case of `CS(=O)(=O)c1ccc(-c2cnc(N)c(-c3ccc(C(F)(F)F)nc3)c2)cc1` [MMV390048], the “PO dose, single exposure radical cure” value [7] is listed as 30 mg/kg.
For `c1cc([C@H]2CC[C@]3(CC2)OO[C@]2(O3)C3CC4CC(C3)CC2C4)ccc1OCCN1CCOCC1` [OZ439], the “single oral dose that cures P. berghei-infected mice” value ([7]; clinical candidate, given in combination with ferroquine in trials) is given as 20 mg/kg and the “PO dose, single exposure radical cure” value [7] is given as 20 mg/kg.
